From US6528488B2, “Method for treating cystic fibrosis” (priority 1999, dated 2003) come the findings set out here.

Values joined by “and” are separate entries in the source; they are usually repeats but may differ in a detail not shown here. Equal entries are not always repeated. Where two headings read alike, the source gives them in different places. Ends that are not written are not given here.

Experiment [1] relates to P. aeruginosa. Type of experiment: cell-based. The conditions noted are these: for cfu/plate: replicate plates; for efficacy in killing P. aeruginosa: Table 3, summary in words; for activity against P. aeruginosa: Example 5, FIG. 4. The method, then: The standard procedure used for testing activity was incubation of the bacterial strain with the peptide for one hour at 37° C., followed by plating at two dilutions. Peptides having the following amino acid sequences (including P-113, as in Example 4) were tested for activity against P. aeruginosa under the conditions described above: P-113 and […] were tested against P. aeruginosa under the conditions described in the preceding examples. The dilution values were as follows: expected-2000 cfu/plate (in broth) from dilution A. A=1/2.5×dilution; plate 50 μl. B=1/2.5×dilution; plate 25 μl.

For experiment [2], the system named is P. aeruginosa. Type of experiment: cell-based. The conditions noted are these: ATCC strains and clinical CF isolates of Table 2 (assays D and A). As for the experimental part:
These Pseudomonas clinical isolates, as well as a variety of Pseudomonas ATCC strains, were tested for their susceptibility to the histatin derivative having the sequence Ala-Lys-Arg-His-His-Gly-Tyr-Lys-Arg-Lys-Phe- His-NH2 (SEQ ID NO: 1) (P-113). P-113 was used at a concentration of 100 μg/mL to […]. P. aeruginosa ATCC 27853 was used as a control in each assay. The ATCC strains were tested using Direct Antibacterial Assay SOP 98-020; the clinical isolates were tested using either the Direct Antibacterial Assay (D) or Alamar Blue Antimicrobial/Antifungal Assay SOP 96-018 (A).
The Direct Assay is an MIC test in microtiter plate format in which cells resuspended in LM broth are exposed to two-fold dilutions of P-113, and the cell density is determined directly after an overnight incubation. Cells are inoculated onto a blood agar plate and incubated for 18 hours at 37° C., and then stored at room temperature for use later in the day. Cells are resuspended and diluted based on the optical density to a final concentration of 5×10^5 per ml in LM broth containing two-fold dilutions of antibiotics. After 16-18 hours at 37° C., the optical density is measured with a Molecular Devices Thermonix plate reader. A reading of ˜0.3 over background is observed for cells grown in the absence of drug. Readings<0.01 correlated with no visible growth. […]

Take `C[C@H](NC(=O)[C@H](Cc1c[nH]cn1)NC(=O)[C@H](CO)NC(=O)[C@@H](N)CC(=O)O)C(=O)N[C@@H](CCCCN)C(=O)N[C@@H](CCCNC(=N)N)C(=O)N[C@@H](Cc1c[nH]cn1)C(=O)N[C@@H](Cc1c[nH]cn1)C(=O)NCC(=O)N[C@@H](Cc1ccc(O)cc1)C(=O)N[C@@H](CCCCN)C(=O)N[C@@H](CCCNC(=N)N)C(=O)N[C@@H](CCCCN)C(=O)N[C@@H](Cc1ccccc1)C(=O)N[C@@H](Cc1c[nH]cn1)C(=O)N[C@@H](CCC(=O)O)C(=O)N[C@@H](CCCCN)C(=O)N[C@@H](Cc1c[nH]cn1)C(=O)N[C@@H](Cc1c[nH]cn1)C(=O)N[C@@H](CO)C(=O)N[C@@H](Cc1c[nH]cn1)C(=O)N[C@@H](CCCNC(=N)N)C(=O)NCC(=O)N[C@@H](Cc1ccc(O)cc1)C(=O)O` [His-5, histatin 5, reference compound]: the cfu/plate in experiment [1] (0.5 μM, dilution A) is 150 cfu/plate and 164 cfu/plate; in experiment [1] (0.5 μM, dilution B), 90 cfu/plate and 96 cfu/plate; in experiment [1] (5 μM, dilution A), 143 cfu/plate and 159 cfu/plate; in experiment [1] (5 μM, dilution B) it was 73 cfu/plate and 68 cfu/plate; in experiment [1] (200 μM, dilution A) it was 0 cfu/plate; in experiment [1] (200 μM, dilution B), 0 cfu/plate. Also, in experiment [1], the “efficacy in killing P. aeruginosa” value is listed as “effective in killing these bacteria”.

Turning to “AKRHHGYKRKFH-NH2 [P-113, Ala-Lys-Arg-His-His-Gly-Tyr-Lys-Arg-Lys-Phe- His-NH2]”, the cfu/plate in experiment [1] (5 μM as printed, second P-113 5 μM line (after His-5 0.5 μM), dilution A) was 133 cfu/plate and 170 cfu/plate; in experiment [1] (5 μM as printed, second P-113 5 μM line (after His-5 0.5 μM), dilution B), 88 cfu/plate and 85 cfu/plate; in experiment [1] (50 μM, dilution A) it was 0 cfu/plate; in experiment [1] (200 μM, dilution A), 0 cfu/plate; in experiment [1] (200 μM, dilution B), 0 cfu/plate. Further, the “activity against P. aeruginosa” value in experiment [1] is reported as “very active”. Also, in experiment [1], the “efficacy in killing P. aeruginosa” value is “greater efficacy than His-5”. Besides, the “effectiveness against the Pseudomonas strains tested” value in experiment [2] was “effective against nearly all of the Pseudomonas strains tested”.

As for “Ala-Gln-Arg-His-His- Gly-Tyr-Lys-Arg-Gln-Phe-His-NH2 (AQRHHGYKRQFH-NH2) [P-113 Q2.10]”, in experiment [1], the “activity against P. aeruginosa” value is “very active”.

Take “Ala-Gln-Gln-His-His-Gly-Tyr- Lys-Gln-Gln-Phe-His-NH2 (AQQHHGYKQQFH-NH2) [P-113 Q2.3.9.10]”: in experiment [1], the “activity against P. aeruginosa” value is “inactive”.

For “Ala-Lys-Arg- Tyr-Tyr-Gly-Tyr-Lys-Arg-Lys-Phe-Tyr-NH2 (AKRYYGYKRKFY-NH2) [P-113 Y4.5.12]”, the “activity against P. aeruginosa” value in experiment [1] is listed as “very active”.

For “Ala-Lys-Arg-Leu- Leu-Gly-Tyr-Lys-Arg-Lys-Phe-Leu-NH2 (AKRLLGYKRKFL-NH2) [P-113 L4.5.12]”, the “activity against P. aeruginosa” value in experiment [1] is “also active”.

As for “Ala-Lys-Gln-His-His-Gly- Tyr-Lys-Gln-Lys-Phe-His-NH2 (AKQHHGYKQKFH-NH2) [P-113 Q3.9]”, in experiment [1], the “activity against P. aeruginosa” value is reported as “also active”.
